Patent publication US12527779B2, “Prostaglandin E2 (PGE2) EP4 receptor antagonists” (Domain Therapeutics, priority 2019, dated 2026)
pIC50: −log10 of the molar value.

Key:
CT26 tumor cells = assay: In vivo anti-tumoral activity in a CT26 tumor model; parameters: species or system BALB/c mice; conditions: Example 25 150 mg/kg po BID combined with anti-PD-1 antibody 200 μg/mouse iv Q3D; 12 mice per group
Procedure: CT26 tumor cells were maintained in vitro as a monolayer culture in RPM11640 medium supplemented with 10% fetal bovine serum at 37° C. in an atmosphere of 5% CO2 in air. The cells were routinely subcultured twice weekly by trypsin-EDTA treatment. The cells in an exponential growth phase were harvested and counted for tumor inoculation.
Female BALB/c mice were inoculated subcutaneously in the right rear flank region with CT26 tumor cells (5×10^5) in 0.1 ml of PBS for tumor development on day 0. Tumor volumes were measured thrice per week in two dimensions using a caliper, and the volume was expressed in mm^3 using the formula: “V=(L×W×W)/2”, where V is tumor volume, L is tumor length (the longest tumor dimension) and W is tumor width (the longest tumor dimension perpendicular to L). […]
Animals were checked daily for morbidity and mortality. During routine monitoring, the animals were checked for any effects on tumor growth and treatments on behavior such as mobility, food and water consumption, body weight gain/loss (body weights were measured thrice per week), eye/hair matting and any other abnormalities. […] The body weights and tumor volumes were monitored by using StudyDirector™ software (version 3.1.399.19).

[1] = molecular target: T1, human EP4 (hEP4) receptor (Homo sapiens, UniProt P35408); assay: In vitro human EP4 functional antagonist activity using BRET biosensors (cAMP EPAC biosensor, TCS2510 stimulation); type: cell-based; conditions: antagonist activity vs EC60 TCS2510, hEP4 in HEK-293 T cells
T1 construct: expressed in transfected cells; host or cells: HEK-293 T cells, transient co-transfection with polyethylenimine
T1 sequence (P35408 whole entry): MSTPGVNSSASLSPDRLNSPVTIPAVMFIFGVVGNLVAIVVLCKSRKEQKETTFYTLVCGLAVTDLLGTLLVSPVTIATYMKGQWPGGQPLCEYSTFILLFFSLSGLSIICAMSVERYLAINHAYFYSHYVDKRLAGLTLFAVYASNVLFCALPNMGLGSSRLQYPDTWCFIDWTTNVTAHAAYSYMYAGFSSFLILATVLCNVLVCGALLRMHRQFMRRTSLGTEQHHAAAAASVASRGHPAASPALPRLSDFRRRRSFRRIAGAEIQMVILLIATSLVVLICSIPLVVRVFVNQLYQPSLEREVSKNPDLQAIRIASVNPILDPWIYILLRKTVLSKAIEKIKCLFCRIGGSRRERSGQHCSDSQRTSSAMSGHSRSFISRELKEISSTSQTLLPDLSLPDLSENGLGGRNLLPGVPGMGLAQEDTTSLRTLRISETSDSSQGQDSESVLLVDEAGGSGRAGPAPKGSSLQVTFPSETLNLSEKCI
Procedure, shortened: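 HEK-293T cells transiently co-transfected with hEP4 and EPAC cAMP BRET biosensor (luciferase/GFP), assayed 48 h later in HEPES-buffered saline after 1 h at 22 °C. After 5 min with compound, cells stimulated with EC60 TCS2510 and BRET read for 10 min; IC50 from 10-point, 4.5-log variable-slope fits, duplicate, two experiments.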

Pan02 tumor cells = assay: In vivo anti-tumoral activity of Example 25 in a Pan02 tumor model; parameters: species or system C57BL/6 mice
Procedure: Pan02 tumor cells were maintained in vitro as a monolayer culture in RPM11640 medium supplemented with 10% fetal bovine serum at 37° C. in an atmosphere of 5% CO2 in air. The cells were routinely subcultured twice weekly by trypsin-EDTA treatment. The cells in an exponential growth phase were harvested and counted for tumor inoculation.
Female C57BL/6 mice were inoculated subcutaneously in the right rear flank region with Pan02 tumor cells (3×10^6) in 0.1 ml of PBS for tumor development on day 0. Tumor volumes were measured thrice per week in two dimensions using a caliper, and the volume was expressed in mm^3 using the formula: “V=(L×W×W)/2”, where V is tumor volume, L is tumor length (the longest tumor dimension) and W is tumor width (the longest tumor dimension perpendicular to L). When the mean tumor size reached approximately 100 mm^3, mice were randomly allocated into groups (10 mice per group) and treated with either a control antibody (rIgG2a(2A3), 200 μg/mouse, iv, Q3D) or an anti-PD-1 antibody (RPM1-14, 200 μg/mouse, iv, Q3D), with or without the compound of Example 25 (150 mg/kg, po, 0.5% MC, BID, BID time interval: 8 h) for at least 3 weeks.
Animals were checked daily for morbidity and mortality. During routine monitoring, the animals were checked for any effects on tumor growth and treatments on behavior such as mobility, food and water consumption, body weight gain/loss (body weights were measured thrice per week), eye/hair matting and any other abnormalities. Dosing as well as tumor and body weight measurements were conducted in a Laminar Flow Cabinet. The body weights and tumor volumes were monitored by using StudyDirector™ software (version 3.1.399.19).

With `CN(CCOc1ccccc1)C1(C(=O)NC2(c3ccc(C(=O)O)cc3)CC2)CCOCC1.Cl` [Example 25, 4-[1-[[4-[Methyl(2-phenoxyethyl)amino]tetrahydropyran-4-carbonyl]amino]cyclopropyl]benzoic acid, hydrochloride] the “cases of complete tumor regression” value (CT26 tumor cells) was 5 cases, the “complete tumor regression, % of the test animals” value (CT26 tumor cells) was 42% and the pIC50 [1] was over 7.00. For the same compound, the “Tumor Growth Inhibition TGI (%)” value (Pan02 tumor cells; Example 25 150 mg/kg po BID + anti-PD1 antibody 0.2 mg/animal Q3D, day 0) was 0.1%, the “Tumor Growth Inhibition TGI (%)” value (Pan02 tumor cells; Example 25 150 mg/kg po BID + anti-PD1 antibody 0.2 mg/animal Q3D, day 3) was 10.9% and the “Tumor Growth Inhibition TGI (%)” value (Pan02 tumor cells; Example 25 150 mg/kg po BID + anti-PD1 antibody 0.2 mg/animal Q3D, day 7) was 16.9%. For the same compound, the “Tumor Growth Inhibition TGI (%)” value (Pan02 tumor cells; Example 25 150 mg/kg po BID + anti-PD1 antibody 0.2 mg/animal Q3D, day 10) was 26.1%, the “Tumor Growth Inhibition TGI (%)” value (Pan02 tumor cells; Example 25 150 mg/kg po BID + anti-PD1 antibody 0.2 mg/animal Q3D, day 14) was 51.1% and the “Tumor Growth Inhibition TGI (%)” value (Pan02 tumor cells; Example 25 150 mg/kg po BID + anti-PD1 antibody 0.2 mg/animal Q3D, day 17) was 62.8%. For the same compound, the “Tumor Growth Inhibition TGI (%)” value (Pan02 tumor cells; Example 25 150 mg/kg po BID + anti-PD1 antibody 0.2 mg/animal Q3D, day 21, hydrochloride, 150 mg/kg) was 71.0%, the “Tumor Growth Inhibition TGI (%)” value (Pan02 tumor cells; Example 25 150 mg/kg po BID + rIgG2a, day 0) was 0.0% and the “Tumor Growth Inhibition TGI (%)” value (Pan02 tumor cells; Example 25 150 mg/kg po BID + rIgG2a, day 3) was 15.6%. The “Tumor Growth Inhibition TGI (%)” value (Pan02 tumor cells; Example 25 150 mg/kg po BID + rIgG2a, day 7) was 22.5%, the “Tumor Growth Inhibition TGI (%)” value (Pan02 tumor cells; Example 25 150 mg/kg po BID + rIgG2a, day 10) was 25.1% and the “Tumor Growth Inhibition TGI (%)” value (Pan02 tumor cells; Example 25 150 mg/kg po BID + rIgG2a, day 14) was 51.5%. For the same compound, the “Tumor Growth Inhibition TGI (%)” value (Pan02 tumor cells; Example 25 150 mg/kg po BID + rIgG2a, day 17) was 61.8% and the “Tumor Growth Inhibition TGI (%)” value (Pan02 tumor cells; Example 25 150 mg/kg po BID + rIgG2a, day 21, hydrochloride, 150 mg/kg) was 68.5%.
